Entries after “also recorded” stand apart in the source; their conditions may differ. One block for each compound: values may come before it.
Columns and labels:
[1] = tested on: L. donovani promastigotes; assay: Anti-leishmanial screening against L. donovani promastigotes at a single concentration (MTT); assay type: cell-based, Leishmania donovani; conditions: 72 h at 26 °C, MTT
Protocol: Each candidate was evaluated for its in vitro activity against reference strain (MHOM/IN/83/AG83) of extracellular promastigotes and intracellular amastigotes of L. donovani.
Promastigotes were routinely cultured at 26 °C in medium M199 supplemented with 10% heat inactivated fetal bovine serum (FBS, Gibco Laboratories, Mumbai, India), penicillin 100 (IU mL^−1), streptomycin (100 μg mL^−1). Log phase promastigotes were sub-cultured every 72–96 h, the inoculum being 2 × 10^6 cells per mL.[29]
The triazin hybrids series was evaluated for their antileishmanial ability against L. donovani promastigotes in vitro. Promastigotes of L. donovani (1× 10^6 cells per mL) in M199 medium were incubated at 26 °C for 72 h with each compound at a concentration of 100 μM. Miltefosine (MTF) was used as a reference drug, 0.2% DMSO as solvent control. Parasites with media alone were taken as control. Parasite viability was achieved by MTT assay after 72 h (Sharma et al. 2023).[30]

[2] = tested on: L. donovani promastigotes; assay: Determination of promastigote cellular morphology (light microscopy); assay type: cell-based, Leishmania donovani; conditions: 25, 50 and 100 μM, 72 h, light microscopy 40×
Protocol: For the evident of morphological changes, the promastigotes (Fig. 3 (C to L)) were incubated in presence of compound T7, T4 and control Ampho B with the different concentration 25 μM, 50 μM, 100 μM shown in (Fig. 3C to L) were analysed by light microscopy (40×magnification) compared to untreated cells (Fig. 4A).
Fig. 4 Morphological Analysis of promastigote stage cells treated with compound T4 and MTF, compared to the untreated control (A) and DMSO treated control (B). Exponential-phase promastigotes (1 × 10^6 cells per mL) were incubated with 25 μm, 50 μm and 100 μm and analysed by light microscopy (40× magnification). (A) Untreated control (B) DMSO Treated cells (C–E) Ampho B, (F–H) T4 and T7 (I–K) at 25, 50, and 100 μM respectively. Scale bar in all is 10 μm.
Variations in the cellular morphology of Leishmania parasites due to the treatment with compounds T4 and T7 was detected microscopically. Briefly, the promastigotes (1× 10^6 cells per mL) were incubated in the absence or presence of test compounds and MTF and AmphoB for 72 h with different concentrations and observed under 40× objective of a phase-contrast microscope. […] Data were recorded by using NIS-Elements imaging software.[32]

[3] = tested on: Human macrophage THP-1 cell line; assay: Cytotoxicity assay on THP-1 cell line (MTT); assay type: cell-based; conditions: 3.125–100 μM
Protocol: The cell lines were incubated for 48 h at 37 °C in a CO2 incubator with increasing concentrations of test compounds and viability was ascertained. Each point or bar corresponds to the mean ± SEM of triplicate samples and is representative of one of three independent experiments.
THP-1 human monocytic cells were grown at 37 °C in medium RPMI-1640 (pH 7.4, Sigma-Aldrich, St. Louis, MO, USA) supplemented with 10% heat-inactivated FBS for 48 to 72 h in a humidified atmosphere of 5% CO2 and sub-cultured in fresh RPMI-1640 medium at an average density 2 × 10^5 cells per mL (Sharma et al. 2023).[30]
Human macrophage THP-1 cell line of 0.5 × 10^6 cells per mL seeded in RPMI-1640 medium (Sigma-Aldrich, USA) supplemented with 10% FBS (GIBCO) in presence of 5% CO2 at 37 °C in triplicate in 96 well culture plate. The cells were treated with two-fold serially diluted concentrations (100–3.125 μM) of the candidate molecules for 72 h. The IC50 was calculated using MTT assay (Sharma et al. 2023).[30]

[4] = tested on: L. donovani amastigotes; assay: Anti-amastigote assay in infected THP-1 macrophages (Giemsa); assay type: cell-based, Leishmania donovani; conditions: for IC50: infected THP-1 macrophages, 72 h
Protocol: To evaluate the anti-leishmanial effect of the compound T4 and T7 on intracellular L. donovani parasites, macrophage was infected with stationary -phase L. donovani for 6 h. The cells were then washed with saline to remove any non-internalised parasites. To assess the effect of compounds T4 and T7 on intracellular parasites at early stages of infection, macrophages were subsequently treated with T4 and T7 at concentrations of 100, 50, 25, 12.5, or 6.25 μM (refer to Table 3 and Fig. 7) for 6, 24, or 48 hours.
THP-1 cells (5 × 10^5 cells per mL) were cultivated in RPMI-1640 media (Roswell Park Memorial Institute 1640) (Sigma-Aldrich, USA), supplemented with 10% fetal calf serum and maintained at 37 °C with 5% CO2 using phorbol ester as the inducer. These cells were added on circular coverslips (1 × 10^6 cells per mL). Promastigotes of L. donovani were introduced at 1 : 20 ratio. Treatment of the samples was carried out at doses of 100, 50, 25, 12.5, 6.25 and 3.125 μM/72 h. After being taken off, the coverslips were stained with Giemsa. The rate of macrophage infection was then ascertained.

[5] = tested on: L. donovani promastigotes; assay: Dose-dependent anti-promastigote activity and determination of IC50 (MTT); assay type: cell-based; conditions: Leishmania donovani, 72 h, 3 days at 26 °C
Protocol: MTF was used as a standard antileishmanial drug control. The cell viability was evaluated (by MTT Assay) and the mean percentage viability was calculated as follows: Mean cell number of treated parasites/mean cell number of untreated parasites × 100. The 50 and 90% inhibitory concentration (IC50) i.e., the concentration of drugs that decreased the cell growth by 50 and 90% respectively, was determined by graphical extrapolation after plotting the graph of percentage viability vs. concentration of the drug.[31]
Parasite viability was not affected by DMSO (0.2%, data not shown) used as solvent control.[33]

[6] = tested on: amastigote; set-up: method as in PMID 29702355; conditions: read-out: IC50 against amastigote; cited from earlier work
[7] = tested on: promastigote; set-up: method as in PMID 29702355; conditions: read-out: IC50 against promastigote; cited from earlier work
[8] = tested on: L. amazonensis; set-up: method as in PMID 30817917; conditions: cited from earlier work
[9] = tested on: L. infantum; set-up: method as in PMID 30817917; conditions: cited from earlier work

- IC50 ([4]; Leishmania donovani, THP-1, 72 h): 5.18 µM
- IC50 [4]: 7.19 µM
- IC50 [5]: 1.07 µM
- melting point: 210 to 212 °C
Structure (SMILES): COc1ccc(C(=O)CCSc2nnc(-c3ccccc3)c(-c3ccccc3)n2)cc1OC [T4, 1-(3,4-Dimethoxyphenyl)-3-((5,6-diphenyl-1,2,4-triazin-3-yl)thio)propan-1-one]
- % Inhibition of L. donovani promastigotes ([1]; 100 μM): 99.67%
- inhibition at 100 µM ([1]; Leishmania donovani, 72 h): > 90%
- Cellular morphological alterations in promastigotes (in words) [2]: loss of flagella
- Cytotoxicity on THP-1 human macrophages (in words) [3]: nontoxic; also recorded: no adverse effects; also recorded: Absence of adverse toxicity
- Percentage reduction of parasites (amastigote) ([4]; 6.25 μM): 66%
- Percentage reduction of parasites (amastigote) ([4]; 12.5 μM): 68.80%
- Percentage reduction of parasites (amastigote) ([4]; 25 μM): 70%
- Percentage reduction of parasites (amastigote) ([4]; 50 μM): 74%
- Percentage reduction of parasites (amastigote) ([4]; 100 μM): 78.0%
- Inhibitory activity against amastigotes (in words) ([4]; 100–6.25 μM, infected macrophages): good inhibitory activity; also recorded: capable of inhibiting the growth

Structure (SMILES): Clc1cc(Cl)ncn1 [compound 5]
- IC50 [6]: < 25 µM
- IC50 [7]: < 25 µM

Structure (SMILES): CN(C)c1ccnc2cc(Cl)ccc12 [7-chloro-N, N-dimethylquinolin-4-amine]
- selectivity index against the axenic amastigotes ([8]; L. amazonensis axenic amastigotes): 74.3
- selectivity index against the promastigotes ([8]; L. amazonensis promastigotes): 86.4
- selectivity index against the axenic amastigotes ([9]; L. infantum axenic amastigotes): 137.6
- selectivity index against the promastigotes ([9]; L. infantum promastigotes): 154.6
